# How the values were obtained:
# Assay type in all cases: functional, cell-based; call rule not given here
# [1] = target: T1, Beta-3 adrenergic receptor (Homo sapiens, UniProt P13945); assay: Beta-3 agonist efficacy in an adenylate cyclase assay performed on chinese hamster ovary cells transfected with human Beta-3 adrenergic receptor; Inactive
# [2] = target: T1, Beta-3 adrenergic receptor; assay: Agonist efficacy for human Beta-3 adrenergic receptor expressed in chinese hamster ovary cells
# [3] = target: T1, Beta-3 adrenergic receptor; assay: Beta-3 agonist efficacy in an adenylate cyclase assay performed on chinese hamster ovary cells transfected with human Beta-3 adrenergic receptor; inactive
# T1 sequence (P13945 whole entry): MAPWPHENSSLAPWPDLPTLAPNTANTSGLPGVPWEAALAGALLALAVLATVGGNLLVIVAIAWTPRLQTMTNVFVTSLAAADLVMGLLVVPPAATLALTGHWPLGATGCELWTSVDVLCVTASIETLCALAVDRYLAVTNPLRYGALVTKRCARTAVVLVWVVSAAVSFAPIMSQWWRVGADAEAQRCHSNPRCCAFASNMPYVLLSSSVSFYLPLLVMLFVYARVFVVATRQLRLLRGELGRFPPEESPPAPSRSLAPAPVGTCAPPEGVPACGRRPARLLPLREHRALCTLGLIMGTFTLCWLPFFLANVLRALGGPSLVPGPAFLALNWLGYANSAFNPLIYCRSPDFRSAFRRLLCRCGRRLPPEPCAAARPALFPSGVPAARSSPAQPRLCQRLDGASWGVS
EC50 [2] [µM],EC50 [3],Compound,also measured
0.82,–,COc1ccc(CCNC[C@@H](O)COc2ccc(O)c(O)c2)cc1,–
7.9,–,COc1ccc(CCNC[C@@H](O)COc2ccc(O)c(F)c2)cc1,–
–,Not Active,COc1ccc(CCNC[C@@H](O)COc2ccc(O)cc2CO)cc1,–
2,–,COc1ccc(CCNC[C@@H](O)COc2cccc(O)c2)cc1,–
–,Not Active,COc1ccc(CCNC[C@@H](O)COc2ccc(F)c(CO)c2)cc1,–
4.7,–,COc1ccc(CCNC[C@@H](O)COc2ccc(O)c(CO)c2)cc1,–
1.1,–,COc1ccc(CCNC[C@@H](O)COc2ccc(F)c(O)c2)cc1,–

# The next lines start with the molecule.
Compound,EC50 [2] [µM],EC50 [3],also measured
COc1ccc(CCNC[C@H](O)COc2cccc(O)c2O)cc1,–,–,EC50 [1]: Not Active
COc1ccc(CCNC[C@@H](O)COc2ccc(O)c(NS(C)(=O)=O)c2)cc1,0.4,–,–
COc1ccc(CCNC[C@@H](O)COc2cccc3c2CCC(=O)N3)cc1,–,Not Active,–
COc1ccc(CCNC[C@@H](O)COc2cc(O)cc(CO)c2)cc1,–,Not Active,–
COc1ccc(CCNC[C@@H](O)COc2cccc3[nH]c(=O)[nH]c23)cc1,2.2,–,–
COc1ccc(CCNC[C@@H](O)COc2cccc3nc(O)ccc23)cc1,–,Not Active,–
C[C@H](Cc1ccc(OCP(=O)(O)c2ccccc2)cc1)NC[C@H](O)COc1ccc(O)c(NS(C)(=O)=O)c1,0.12,–,–
COc1ccc(CCNC[C@@H](O)COc2ccc3c(c2)NC(=O)CO3)cc1,–,Not Active,–
COc1ccc(CCNC[C@@H](O)COc2ccc(O)c3c2CCC(=O)N3)cc1,0.56,–,–
COc1ccc(CCNC[C@@H](O)COc2ccc(O)cc2)cc1,1,–,–
COc1ccc(CCNC[C@@H](O)COc2cccc3[nH]c(C(F)(F)F)nc23)cc1,–,Not Active,–
COc1ccc(CCNC[C@@H](O)COc2ccccc2O)cc1,–,Not Active,–
CCCCCCP(=O)(O)COc1ccc(CCNC[C@H](O)COc2ccc(O)c3c2CCC(=O)N3)cc1,0.29,–,–
CC(C)(C)NCC(O)COc1cccc2[nH]c(=O)[nH]c12 (stereo unspecified) [CGP-12177],2,–,–

# From ChEMBL document CHEMBL1130567, “A simplified template approach towards the synthesis of a potent beta-3 adrenoceptor agonist at the human receptor” (Bioorg Med Chem Lett, 1997)
